Each molecule was assayed against T1, human kinase Mps-1 (Homo sapiens, UniProt P33981) (assay: Mps-1 kinase assay (TR-FRET)). Settings: N-terminally GST-tagged human full length recombinant Mps-1; 10 μM ATP; 1 μM peptide substrate; 15 min pre-incubation; 60 min at 22° C.
T1 construct: N-terminally GST-tagged human full length recombinant Mps-1 kinase; GST (N); purchased Invitrogen, Karslruhe, Germany PV4071
T1 sequence (P33981 1-857): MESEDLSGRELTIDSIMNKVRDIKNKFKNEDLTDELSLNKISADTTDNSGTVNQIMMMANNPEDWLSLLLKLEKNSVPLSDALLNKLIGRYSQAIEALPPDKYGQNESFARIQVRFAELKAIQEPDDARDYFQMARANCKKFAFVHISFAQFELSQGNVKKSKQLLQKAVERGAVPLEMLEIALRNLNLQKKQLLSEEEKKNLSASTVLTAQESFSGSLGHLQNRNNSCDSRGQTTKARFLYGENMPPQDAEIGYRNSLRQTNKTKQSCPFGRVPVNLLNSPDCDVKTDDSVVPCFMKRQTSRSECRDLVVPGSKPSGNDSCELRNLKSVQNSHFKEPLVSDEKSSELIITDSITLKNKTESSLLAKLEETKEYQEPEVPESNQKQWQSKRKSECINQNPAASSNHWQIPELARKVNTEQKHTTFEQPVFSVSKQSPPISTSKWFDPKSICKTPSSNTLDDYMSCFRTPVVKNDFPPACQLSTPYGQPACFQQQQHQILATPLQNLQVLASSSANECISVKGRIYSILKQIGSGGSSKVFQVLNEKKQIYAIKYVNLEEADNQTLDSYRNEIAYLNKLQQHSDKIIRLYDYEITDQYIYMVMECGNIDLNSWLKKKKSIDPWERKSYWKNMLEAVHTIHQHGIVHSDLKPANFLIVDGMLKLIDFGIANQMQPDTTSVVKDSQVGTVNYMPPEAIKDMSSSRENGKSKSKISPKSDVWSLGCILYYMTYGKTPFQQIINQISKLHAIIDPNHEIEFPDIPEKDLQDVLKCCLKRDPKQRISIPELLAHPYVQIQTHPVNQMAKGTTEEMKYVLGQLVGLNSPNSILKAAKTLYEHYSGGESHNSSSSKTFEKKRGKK
Format: biochemical
Method: The human kinase Mps-1 phosphorylates a biotinylated substrate peptide. Detection of the phosphorylated product is achieved by time-resolved fluorescence resonance energy transfer (TR-FRET) from Europium-labelled anti-phospho-Serine/Threonine antibody as donor to streptavidin labelled with cross-linked allophycocyanin (SA-XLent) as acceptor. Compounds are tested for their inhibition of the kinase activity.
N-terminally GST-tagged human full length recombinant Mps-1 kinase (purchased from Invitrogen, Karslruhe, Germany, cat. no PV4071) was used. As substrate for the kinase reaction a biotinylated peptide of the amino-acid sequence […] (C-terminus in amide form, purchased from Biosynthan GmbH, Berlin) was used.
The concentration of Mps-1 in the assay was adjusted to the activity of the enzyme lot and was chosen appropriate to have the assay in the linear range, typical enzyme concentrations were in the range of about 1 nM (final conc. in the 5 μl assay volume).
The resulting mixture was incubated 1 h at 22° C. to allow the binding of the phosphorylated peptide to the anti-phospho(Ser/Thr)-Europium-antibody. Subsequently the amount of phosphorylated substrate was evaluated by measurement of the resonance energy transfer from the Europium-labelled anti-phospho(Ser/Thr) antibody to the Streptavidin-XLent. Therefore, the fluorescence emissions at 620 nm and 665 nm after excitation at 350 nm was measured in a Viewlux TR-FRET reader (PerkinElmer LAS, Rodgau-Jügesheim, Germany). The “blank-corrected normalized ratio” (a Viewlux specific readout, similar to the traditional ratio of the emissions at 665 nm and at 622 nm, in which blank and Eu-donor crosstalk are subtracted from the 665 nm signal before the ratio is calculated) was taken as the measure for the amount of phosphorylated substrate.
`Cc1cc(-c2cnc3c(NCCC(F)(F)F)nc(-c4ccc(F)cc4)cn23)ccc1C(=O)NC1CC1` [Example 10-1, N-cyclopropyl-4-{6-(4-fluorophenyl)-8-[(3,3,3-trifluoropropyl)amino]imidazo[1,2-a]pyrazin-3-yl}-2-methylbenzamide] showed an IC50 of 3.6 nM. In the case of `CC(C)CNc1nc(-c2ccc(C(=O)NC3CC3)cc2)cn2c(-c3ccc(C(=O)NC4CC4)cc3)cnc12` [Example 1-30, 4,4′-{8-[(2-methylpropyl)amino]imidazo[1,2-a]pyrazine-3,6-diyl}bis (N-cyclopropylbenzamide)], the IC50 is reported as 1.5 nM. In the case of `O=C(NC1CC1)c1ccc(-c2cnc3c(NCC4CCCCC4)nc(-c4ccccc4)cn23)cc1` [Example 2-66, 4-{8-[(Cyclohexylmethyl)amino]-6-phenylimidazo[1,2-a]pyrazin-3-yl}-N-cyclopropylbenzamide], the IC50 is reported as 6.2 nM. Work on `CNC(=O)c1ccc(-c2cn3c(-c4ccc(C(=O)NC5CC5)cc4)cnc3c(NCC(C)C)n2)cc1Cl` [Example 1-82, 2-chloro-4-{3-[4-(cyclopropylcarbamoyl)phenyl]-8-[(2-methylpropyl)amino]imidazo[1,2-a]pyrazin-6-yl}-N-methyl benzamide] yielded an IC50 of 1.6 nM. With `CC(C)CNc1nc(-c2ccc3[nH]ccc3c2)cn2c(-c3ccc(C(=O)NC4CC4)cc3)cnc12` [Example 1-74, N-cyclopropyl-4-{6-(1H-indol-5-yl)-8-[(2-methyl-propyl)amino]imidazo [1,2-a]pyrazin-3-yl} benzamide] the IC50 was 37.7 nM. In the case of `O=C(NC1CC1)c1ccc(-c2cnc3c(NCCc4nccs4)nc(-c4ccccc4)cn23)cc1` [Example 2-63, N-cyclopropyl-4-(6-phenyl-8-{[2-(1,3-thiazol-2-yl)ethyl]amino}imidazo[1,2-a]pyrazin-3-yl)benzamide], the IC50 is reported as 5.6 nM. `O=C(NC1CC1)c1ccc(-c2cnc3c(NCCOCC(F)(F)F)nc(-c4ccccc4)cn23)cc1` [Example 2-88, N-cyclopropyl-4-(6-phenyl-8-{[2-(2,2,2-trifluoroethoxy)ethyl]amino}imidazo[1,2-a]pyrazin-3-yl)benzamide] gave an IC50 of 3.6 nM. `CC(C)CNc1nc(-c2ccc(CCO)cc2)cn2c(-c3ccc(C(=O)NC4CC4)cc3)cnc12` [Example 6-1, N-cyclopropyl-4-{6-[4-(2-hydroxyethyl)phenyl]-8-(isobutylamino)imidazo[1,2-a]pyrazin-3-yl}benzamide] showed an IC50 of 1 nM. `Cn1ccc(CNc2nc(-c3ccccc3)cn3c(-c4ccc(C(=O)NC5CC5)cc4)cnc23)n1` [Example 2-53, N-cyclopropyl-4-(8-{[(1-methyl-1H-pyrazol-3-yl)methyl]amino}-6-phenylimidazo [1,2-a]pyrazin-3-yl)benzamide] was tested, and the IC50 was 5.6 nM. With `O=C(NC1CC1)c1ccc(-c2cnc3c(NCc4ccsc4)nc(-c4ccccc4)cn23)cc1` [Example 2-74, N-cyclopropyl-4-{6-phenyl-8-[(3-thienylmethyl)amino]imidazo[1,2-a]pyrazin-3-yl}benzamide] the IC50 was 3.7 nM. `CC(C)CNc1nc(-c2cccc(C(=O)N(C)C)c2)cn2c(-c3ccc(C(=O)NC4CC4)cc3)cnc12` [Example 1-27, 3-{3-[4-(cyclopropyl-carbamoyl)phenyl]-8-[(2-methylpropyl)amino]imidazo[1,2-a]pyrazin-6-yl}-N,N-dimethyl-benzamide] was tested, and the IC50 was 8.1 nM. Work on `CC(C)CNc1nc(-c2cccc(CO)c2)cn2c(-c3ccc(C(=O)NC4CC4)cc3)cnc12` [Example 1-5, N-cyclopropyl-4-{6-[3-(hydroxymethyl)phenyl]-8-[(2-methylpropyl)amino]imidazo[1,2-a]pyrazin-3-yl}benzamide] yielded an IC50 of 1.4 nM. For `Cc1cn2c(-c3ccc(C(=O)NC4CC4)cc3)cnc2c(NCC(C)C)n1` [Example 1-88, N-cyclopropyl-4-{6-methyl-8-[(2-methyl-propyl)amino]imidazo [1,2-a]pyrazin-3-yl} benzamide], the IC50 was 11.9 nM. `COCCCNc1nc(-c2ccccc2)cn2c(-c3ccc(C(=O)NC4CC4)cc3)cnc12` [Example 2-46, N-cyclopropyl-4-{8-[(3-methoxypropyl)amino]-6-phenylimidazo[1,2-a]pyrazin-3-yl}benzamide] was tested, and the IC50 was 3.5 nM. `O=C(NC1CC1)c1ccc(-c2cnc3c(NCCc4ccccn4)nc(-c4ccccc4)cn23)cc1` [Example 2-24, N-cyclopropyl-4-(6-phenyl-8-{[2-(pyridin-2-yl)ethyl]amino}imidazo[1,2-a]pyrazin-3-yl) benzamide] showed an IC50 of 10.3 nM. `CN(C)c1ccc(-c2cn3c(-c4ccc(C(=O)NC5CC5)c(Cl)c4)cnc3c(NCC(C)(C)O)n2)cc1` [Example 1-99, 2-chloro-N-cyclopropyl-4-{6-[4-(dimethylamino)phenyl]-8-[(2-hydroxy-2-methylpropyl)amino]imidazo[1,2-a]pyrazin-3-yl}benzamide] was tested, and the IC50 was 31.1 nM. For `O=C(NC1CC1)c1ccc(-c2cnc3c(NCCO)nc(-c4ccccc4)cn23)cc1` [Example 2-1, N-cyclopropyl-4-{8-[(2-hydroxyethyl)amino]-6-phenylimidazo[1,2-a]pyrazin-3-yl}benzamide], the IC50 was 2.7 nM. `CC(C)CNc1nc(-c2cccc(S(N)(=O)=O)c2)cn2c(-c3ccc(C(=O)NC4CC4)cc3)cnc12` [Example 1-129, N-cyclopropyl-4-[8-(isobutylamino)-6-(3-sulfamoylphenyl)imidazo [1,2-a]pyrazin-3-yl] benzamide] gave an IC50 of 1.9 nM. In the case of `Cc1cc(-c2cnc3c(NCC4CCN(C)C4)nc(-c4ccc(F)cc4)cn23)ccc1C(=O)NC1CC1` (centres unmarked) [Example 10-8, N-cyclopropyl-4-[6-(4-fluorophenyl)-8-{[(1-methylpyrrolidin-3-yl)methyl]amino}imidazo [1,2-a]pyrazin-3-yl]-2-methylbenzamide], the IC50 is reported as 119 nM. Molecule `CCC(CNc1nc(-c2ccccc2)cn2c(-c3ccc(C(=O)NC4CC4)cc3)cnc12)OC` (centres unmarked) [Example 2-58, N-cyclopropyl-4-{8-[(2-methoxybutyl)amino]-6-phenylimidazo[1,2-a]pyrazin-3-yl}benzamide] has an IC50 of 2.9 nM. For `Cc1cc(-c2cn3c(-c4ccc(C(=O)NC5CC5)cc4)cnc3c(NCC(C)C)n2)cc(C)c1O` [Example 1-12, N-cyclopropyl-4-{6-(4-hydroxy-3,5-dimethyl-phenyl)-8-[(2-methyl-propyl)amino]imidazo [1,2-a]pyrazin-3-yl} benzamide], the IC50 was 3.8 nM. `NCCCCCNc1nc(-c2ccccc2)cn2c(-c3ccc(C(=O)NC4CC4)cc3)cnc12` [Example 2-79, 4-{8-[(5-Aminopentyl)amino]-6-phenylimidazo[1,2-a]pyrazin-3-yl}-N-cyclopropylbenzamide] was tested, and the IC50 was 3.2 nM. In the case of `CN(C)c1ccc(-c2cn3c(-c4ccc(C(=O)NC5CC5)c(Cl)c4)cnc3c(NCc3ccnn3C)n2)cc1` [Example 1-108, 2-chloro-N-cyclopropyl-4-(6-[4-(dimethylamino)phenyl]-8-{[(1-methyl-1H-pyrazol-5-yl)methyl]amino}imidazo [1,2-a]pyrazin-3-yl) benzamide], the IC50 is reported as 43.9 nM. In the case of `NCCCCCCNc1nc(-c2ccccc2)cn2c(-c3ccc(C(=O)NC4CC4)cc3)cnc12` [Example 2-84, 4-{8-[(6-Aminohexyl)amino]-6-phenylimidazo[1,2-a]pyrazin-3-yl}-N-cyclopropylbenzamide], the IC50 is reported as 1.6 nM. With `O=C(NC1CC1)c1ccc(-c2cnc3c(NCc4cccs4)nc(-c4ccccc4)cn23)cc1` [Example 2-77, N-cyclopropyl-4-{6-phenyl-8-[(2-thienylmethyl)amino]imidazo[1,2-a]pyrazin-3-yl}benzamide] the IC50 was 2.5 nM. For `O=C(NC1CC1)c1ccc(-c2cnc3c(NCCCO)nc(-c4ccccc4)cn23)cc1` [Example 2-17, N-cyclopropyl-4-{8-[(3-hydroxypropyl)amino]-6-phenylimidazo[1,2-a]pyrazin-3-yl}benzamide], the IC50 was 1.6 nM.

From patent US20140187548A1, “6 SUBSTITUTED IMIDAZOPYRAZINES FOR USE AS MPS-1 AND TKK INHIBITORS IN THE TREATMENT OF HYPERPROLIFERATIVE DISORDERS” (BAYER INTELLECTUAL PROPERTY GMBH, priority 2010, published 2014)
